# Values of other authors in US11857677B2, “Ready to use injectable formulations of melphalan and processes for preparation thereof” (RK Pharma Solutions LLC, priority 2019, dated 2024).
compound,measurement,value
"N[C@@H](Cc1ccc(N(CCCl)CCCl)cc1)C(=O)O [Melphalan, 4-[bis(2-chloroethyl)amino]-L-phenylalanine]",Solubility in water,practically insoluble
